Measurements published in patent EP0059057A1 (priority 1981, dated 1982).
Read-outs that look alike come from different tables or passages of the source.

Assays:
[1] = tested on: culture filtrate prepared from an enteropathogenic strain of E. coli; format: in vivo; conditions: infant mice
[2] = tested on: Heat stable E. coli enterotoxin from E. coli strain pl6; conditions: 100 µg/kg
[3] = tested on: culture filtrate prepared from an enteropathogenic strain of E. coli; conditions: piglets; for Mean Scour Score ± SEM drug treated: score 0 - 3
[4] = 1 mg/kg p.o., 45 mins prior to challenge
[5] = 5 mg/kg p.o., 45 mins prior to challenge
[6] = 10 mg/kg p.o., 45 mins prior to challenge
[7] = 20 mg/kg p.o., 45 mins prior to challenge
[8] = 100 mg/kg p.o., 45 mins prior to challenge
[9] = 1 mg/kg po., duration of test 6 h
[10] = 1 mg/kg po., duration of test 12 h
[11] = 10 mg/kg po., duration of test 12 h
[12] = 2 x 5 mg/kg po., duration of test 12 h

For `C[C@H](N)[C@H](O)c1cccc(O)c1` [Metoraminol], the “% Inhibition” value ([1]; 200 mg/kg p.o., 45 mins prior to challenge) was 45%.
For `CNCC(O)c1ccc(O)c(O)c1` (stereo not shown) [Adrenaline], the “Secretion/(ml/30 min) (mean ± SEM [n=10)” value ([2]; time 0-30 min after toxin (before drug; drug administered 30 min after toxin)) was 31 ± 3 ml/30 min, the “Secretion/(ml/30 min) (mean ± SEM [n=10)” value ([2]; time 30-60 min after toxin) was 10 ± 1 ml/30 min and the “Secretion/(ml/30 min) (mean ± SEM [n=10)” value ([2]; time 60-90 min after toxin) was 8 ± 2 ml/30 min. For the same compound, the “Secretion/(ml/30 min) (mean ± SEM [n=10)” value ([2]; time 90-120 min after toxin) was 6 ± 2 ml/30 min, the “Secretion/(ml/30 min) (mean ± SEM [n=10)” value ([2]; time 120-150 min after toxin) was 8 ± 3 ml/30 min and the “Secretion/(ml/30 min) (mean ± SEM [n=10)” value ([2]; time 150-180 min after toxin) was 7 ± 2 ml/30 min. The “Secretion/(ml/30 min) (mean ± SEM [n=10)” value ([2]; time -30-0 min after toxin (before toxin and drug)) was 3 ± 1 ml/30 min, the “% Inhibition” value ([1]; 0.5 mg/kg p.o., 45 mins prior to challenge) was 8% and the “% Inhibition” value [1, 4] was 18%. For the same compound, the “% Inhibition” value [1, 5] was 54%, the “% Inhibition” value [1, 6] was 54% and the “% Inhibition” value [1, 7] was 69%. The “% Inhibition” value [1, 8] was 101%.
For `CNCC(O)c1ccc(O)c(O)c1.O=C(O)C(O)C(O)C(=O)O` (stereo not shown) [Adrenaline Bitartrate], the “% Inhibition of Scour” value [3, 9] was 11%, the “Mean Scour Score ± SEM drug treated” value [3, 9] was 2.0 ± 0.2 and the “% Inhibition of Scour” value [3, 10] was 16%. For the same compound, the “Mean Scour Score ± SEM drug treated” value [3, 10] was 1.8 ± 0.1, the “% Inhibition of Scour” value [3, 11] was 98% and the “Mean Scour Score ± SEM drug treated” value [3, 11] was 0 ± 0. For the same compound, the “% Inhibition of Scour” value [3, 12] was 96%, the “Mean Scour Score ± SEM drug treated” value [3, 12] was 0.1 ± 0.1 and the “% Inhibition” value [1, 4] was 37%. For the same compound, the “% Inhibition” value [1, 5] was 36%, the “% Inhibition” value [1, 6] was 58% and the “% Inhibition” value [1, 7] was 70%. The “% Inhibition” value [1, 8] was 96%.
With `NC[C@H](O)c1ccc(O)c(O)c1` [Noradrenaline] the “% Inhibition” value ([1]; 10 mg/kg p.o., in 6mM ascorbate) was 40%.
